Test results from patent US11306079B2, “3-(5-amino-pyrazin-2-yl)-benzenesulfonamide derivatives and related compounds as PI3K-gamma kinase inhibitors” (Incyte Corporation, priority 2017, dated 2022).
Structures can show the parent of a compound that is named as a salt.

How the values were obtained:
[1] = biological target: PI3Kδ (p110δ/p85α) Recombinant Human Protein (Homo sapiens (Human), UniProt O00329); experiment: PI3Kδ Scintillation Proximity Assay; format: biochemical; conditions: 20 μM PIP2, 2 μM ATP, 3.4 nM PI3Kδ, 120 min, room temperature
Procedure, shortened: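 Radiometric read-out: 33P-labelled PIP3 product captured on WGA SPA beads and counted, with IC50 fitted from percent activity relative to DMSO control. Enzyme (3.4 nM) was incubated 120 min at room temperature with 20 μM PIP2 and 2 μM ATP at pH 6.7, 2% DMSO.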

[2] = tested on: Phosphorylated Ribosomal Protein S6 (RPS6) in THP-1 cells; experiment: THP-1 RPS6 ELISA Assay; format: cell-based; conditions: Homo sapiens; serum starved THP-1 cells, 2 hours with compound, 10 nM MCP-1 for 15 minutes, Phospho-RPS6 ELISA; read-out: PI3Kγ_THP1_RPS6_ELISA IC50
Procedure, shortened: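 Phospho-RPS6 in lysates measured by ELISA at 450 nm, corrected at 540 nm, after MCP-1 challenge (10 nM, 15 min) of THP-1 cells that were starved overnight and exposed to test compound for 2 h at 37° C, 2×10^5 cells/well. Curve fit of percent inhibition gives IC50.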

[3] = biological target: PI3Kγ (p110γ) Recombinant Human Protein (Homo sapiens (Human), UniProt P48736); experiment: PI3K-γ Scintillation Proximity Assay; format: biochemical; conditions: 20 μM PIP2, 2 μM ATP, 13 nM PI3Kγ, 120 min, room temperature
Procedure, shortened: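 Recombinant human p110γ (13 nM) phosphorylated 20 μM PIP2 with 2 μM ATP plus [γ-33P]ATP in 20 mM MOPS pH 6.7, 10 mM MgCl2, 5 mM DTT, 0.03% CHAPS, 2% DMSO, 120 min at room temperature. Radiolabelled product was captured on WGA SPA beads and counted. IC50 came from curves of percent solvent-control activity.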

Sequence of PI3Kδ (p110δ/p85α) Recombinant Human Protein (O00329 whole entry): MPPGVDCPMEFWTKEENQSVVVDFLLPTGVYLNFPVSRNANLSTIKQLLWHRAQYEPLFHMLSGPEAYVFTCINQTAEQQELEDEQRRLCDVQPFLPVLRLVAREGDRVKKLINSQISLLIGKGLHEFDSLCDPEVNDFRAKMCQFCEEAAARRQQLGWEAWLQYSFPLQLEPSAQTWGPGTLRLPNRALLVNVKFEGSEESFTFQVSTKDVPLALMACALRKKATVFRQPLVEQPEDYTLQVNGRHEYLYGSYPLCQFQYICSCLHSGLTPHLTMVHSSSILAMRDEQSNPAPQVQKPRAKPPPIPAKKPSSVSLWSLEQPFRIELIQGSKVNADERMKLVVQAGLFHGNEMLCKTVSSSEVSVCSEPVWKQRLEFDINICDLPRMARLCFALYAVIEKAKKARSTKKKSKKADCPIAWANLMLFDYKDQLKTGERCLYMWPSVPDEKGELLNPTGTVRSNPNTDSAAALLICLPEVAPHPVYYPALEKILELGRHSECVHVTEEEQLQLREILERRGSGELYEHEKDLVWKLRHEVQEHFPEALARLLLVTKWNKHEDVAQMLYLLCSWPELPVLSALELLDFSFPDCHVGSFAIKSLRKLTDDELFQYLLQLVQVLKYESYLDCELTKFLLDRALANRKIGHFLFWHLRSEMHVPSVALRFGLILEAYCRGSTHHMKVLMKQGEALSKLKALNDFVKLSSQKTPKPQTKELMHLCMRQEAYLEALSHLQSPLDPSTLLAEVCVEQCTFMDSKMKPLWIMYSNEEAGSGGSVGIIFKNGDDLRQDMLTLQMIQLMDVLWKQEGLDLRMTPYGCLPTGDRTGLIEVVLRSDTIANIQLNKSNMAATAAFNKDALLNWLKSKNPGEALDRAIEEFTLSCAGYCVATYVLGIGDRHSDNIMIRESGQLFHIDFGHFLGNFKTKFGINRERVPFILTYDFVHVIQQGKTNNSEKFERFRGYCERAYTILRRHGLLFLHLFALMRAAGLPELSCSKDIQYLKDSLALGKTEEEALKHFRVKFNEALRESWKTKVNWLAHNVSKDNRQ
Sequence of PI3Kδ (p110δ/p85α) Recombinant Human Protein (P27986 whole entry partner): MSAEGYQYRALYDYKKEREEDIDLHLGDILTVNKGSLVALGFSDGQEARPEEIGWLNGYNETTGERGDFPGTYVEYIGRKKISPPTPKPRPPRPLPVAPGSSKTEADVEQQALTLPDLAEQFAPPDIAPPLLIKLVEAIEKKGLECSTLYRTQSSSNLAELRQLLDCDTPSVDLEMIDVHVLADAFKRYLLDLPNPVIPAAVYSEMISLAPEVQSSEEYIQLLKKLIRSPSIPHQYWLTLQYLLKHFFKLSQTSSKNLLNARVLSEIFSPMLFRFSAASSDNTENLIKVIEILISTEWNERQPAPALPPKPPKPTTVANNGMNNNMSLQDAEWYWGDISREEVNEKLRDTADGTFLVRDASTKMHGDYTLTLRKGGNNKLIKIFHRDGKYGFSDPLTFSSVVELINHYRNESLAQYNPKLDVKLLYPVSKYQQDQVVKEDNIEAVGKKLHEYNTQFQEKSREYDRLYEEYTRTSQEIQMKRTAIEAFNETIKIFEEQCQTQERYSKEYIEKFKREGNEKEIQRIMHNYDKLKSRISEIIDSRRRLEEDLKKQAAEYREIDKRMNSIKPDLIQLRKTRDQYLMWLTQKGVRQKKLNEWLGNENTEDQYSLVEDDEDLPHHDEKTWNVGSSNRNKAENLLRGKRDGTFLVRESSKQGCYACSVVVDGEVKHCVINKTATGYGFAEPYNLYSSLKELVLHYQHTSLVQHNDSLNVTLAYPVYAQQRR
Sequence of PI3Kγ (p110γ) Recombinant Human Protein (P48736 whole entry): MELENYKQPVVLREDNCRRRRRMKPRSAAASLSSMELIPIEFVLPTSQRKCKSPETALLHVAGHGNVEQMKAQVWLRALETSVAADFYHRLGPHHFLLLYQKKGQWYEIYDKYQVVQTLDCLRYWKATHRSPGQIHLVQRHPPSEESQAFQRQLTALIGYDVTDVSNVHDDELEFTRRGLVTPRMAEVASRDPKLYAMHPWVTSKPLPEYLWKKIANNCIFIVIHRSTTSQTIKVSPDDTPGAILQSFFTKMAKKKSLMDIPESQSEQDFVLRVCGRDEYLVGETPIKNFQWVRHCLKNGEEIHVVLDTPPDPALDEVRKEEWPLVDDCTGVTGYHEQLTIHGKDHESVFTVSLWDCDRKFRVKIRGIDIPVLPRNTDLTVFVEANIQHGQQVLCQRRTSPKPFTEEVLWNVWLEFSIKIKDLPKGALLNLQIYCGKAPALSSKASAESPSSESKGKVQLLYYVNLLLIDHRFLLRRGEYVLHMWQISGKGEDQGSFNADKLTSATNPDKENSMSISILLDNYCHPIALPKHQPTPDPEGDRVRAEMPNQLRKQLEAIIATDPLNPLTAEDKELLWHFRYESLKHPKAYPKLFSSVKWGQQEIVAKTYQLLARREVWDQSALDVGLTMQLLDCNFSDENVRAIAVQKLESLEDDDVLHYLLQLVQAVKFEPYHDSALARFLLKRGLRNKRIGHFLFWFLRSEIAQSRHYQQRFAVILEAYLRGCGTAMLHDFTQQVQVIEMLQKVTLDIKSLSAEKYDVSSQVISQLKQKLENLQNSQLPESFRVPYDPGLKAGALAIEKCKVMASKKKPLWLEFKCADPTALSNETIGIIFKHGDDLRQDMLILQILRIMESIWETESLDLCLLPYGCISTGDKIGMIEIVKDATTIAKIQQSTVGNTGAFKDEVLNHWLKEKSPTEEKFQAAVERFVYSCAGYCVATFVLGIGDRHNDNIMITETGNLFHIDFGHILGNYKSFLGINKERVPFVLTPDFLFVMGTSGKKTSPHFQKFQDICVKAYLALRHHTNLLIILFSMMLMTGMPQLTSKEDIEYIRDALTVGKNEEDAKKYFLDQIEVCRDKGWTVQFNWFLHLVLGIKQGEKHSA

Structure (SMILES)	IC50 [1]	IC50 [2]	IC50 [3]
Cc1ccc(S(=O)(=O)NC23CC(C(C)(C)O)(C2)C3)cc1-c1cnc(N)c(-n2cncn2)n1 [Example 29, 3-(5-Amino-6-(1H-1,2,4-triazol-1-yl)pyrazin-2-yl)-N-(3-(2-hydroxypropan-2-yl)bicyclo[1.1.1]pentan-1-yl)-4-methylbenzenesulfonamide trifluoroacetate salt]	≤ 500 nM	≤ 500 nM	≤ 100 nM
Cc1ccc(S(=O)(=O)NC23CC(C#N)(C2)C3)cc1-c1cnc(N)c(-n2ccnn2)n1 [Example 43, 3-(5-Amino-6-(1H-1,2,3-triazol-1-yl)pyrazin-2-yl)-N-(3-cyanobicyclo[1.1.1]pentan-1-yl)-4-methylbenzenesulfonamide Trifluoroacetate Salt]	≤ 500 nM	≤ 100 nM	≤ 100 nM
Cc1ccc(S(=O)(=O)NC23CNC(C2)C3)cc1-c1cnc(N)c(-c2ncn(C)n2)n1 [Example 57, 3-(5-Amino-6-(1-methyl-1H-1,2,4-triazol-3-yl)pyrazin-2-yl)-N-(2-azabicyclo[2.1.1]hexan-4-yl)-4-methylbenzenesulfonamide trifluoroacetate salt]	≤ 100 nM	≤ 500 nM	≤ 100 nM
